# Test system: platelet accumulation at sites of laser-induced injury
# Experiment: Thrombus formation in cremaster arterioles after laser-induced injury, intravital microscopy
# Type: in vivo
# Conditions: mice
# Experimental: Intravital video microscopy of the cremaster muscle microcirculation was performed as described previously in Falati, S., Gross, P., Merrill-Skoloff, G., Furie, B. C. & Furie, Nat Med 8, 1175-81. (2002); and Jasuj a, R. et al., J Clin Invest 122, 2104-2113 (2012). Digital images were captured with an Orca Flash 4.0v2 sCMOS camera (Hamamatsu Photonics K.K., Shizuoka Pref., Japan). Representative images are presented, but the median curves include the full data. The kinetics of platelet thrombus formation were analyzed by determining median fluorescence values over time in ˜30-40 thrombi in three mice.
# Two hours prior to surgery, 100 mg/kg of the suicide P450 inhibitor 1-aminobenzotriazole (ABT) was administered intraperioneally to each mouse. The cremaster muscle was then surgically exposed. Prior to arteriolar wall injury, DyLight-labeled antibodies were infused intravenously together with drug or vehicle control. Injury to a cremaster arteriolar vessel (30-50-μm diameter) was induced with a MicroPoint laser system Andor Andor Technology, Ltd., Belfast Ireland) focused through the microscope objective, parfocal with the focal plane and tuned to 440 nm through a dye cell containing 5 mM coumarin in methanol. Data were captured digitally from two fluorescence channels, 488/520 nm and 647/670 nm, as well as a brightfield channel Data acquisition was initiated both prior to and following an ablation laser pulse for each injury. The microscope system was controlled and images were collected and analyzed using SlideBook 6.0 (Intelligent Imaging Innovations, Denver, Colo.).
# Prior to induction of the thrombus but after injection of the fluorescently labeled antibody, approximately 30 time points were recorded. Subsequently, a thrombus is initiated and recorded for approximately 170 seconds. […] The mean of maximal intensity values in the upstream region for each frame is calculated and used as the threshold to define those pixels containing signal. […] Using this information, the actual integrated intensity for each frame is calculated according to the following formula: […]
smiles,measurement,setting,value
CCOC(=O)c1c(CNCCN(CC)CC)n(-c2ccccc2)c2cc(Br)c(O)cc12 [bepristat 2a],tolerability in vivo,15 mg/kg infusion,tolerated in vivo
same,inhibition of platelet accumulation at sites of laser-induced injury,"infusion 15 mg/kg body weight, p=0.02, FIG. 3c",14.9 % of controls
same,thrombus formation in vivo,laser injury of cremaster arterioles,potently inhibits thrombus formation
